What was measured:
[1] = test system: vascular smooth muscle (isolated thoracic aorta segments); assay: Calcium antagonism in vascular smooth muscle, isolated thoracic aorta segments from male spontaneously hypertensive rat (pA2); assay type: cell-based; conditions: for active in the foregoing test (vascular calcium antagonism): reference drugs; for pA2 (Ca++ antagonism): test compound 1×10^-6 M, one hour incubation, K+ (100 mM) depolarized, considered active if pA2 is 6.0 or greater
Procedure: Isolated thoracic aorta segments from the male spontaneously hypertensive rat were utilized in this test procedure.
The excised aorta segment was mounted in a tissue bath containing modified Krebs solution. After depolarization of the tissue with potassium (100 mM), calcium, in cumulative concentrations of 1×10^-3 M, 3.2×10^-3 M, and 1×10^-2 M was injected into the bath to produce vascular smooth muscle contraction. The developed tension (in grams) is measured and control dose-response values obtained. After one hour of incubation with a test compound at 1×10^-6 M concentration, the same doses of calcium ions were repeated. The log dose-response curves of the control and after treatment were analyzed by linear regression. The pA2 value was calculated as a measure of calcium antagonism of the test compound. See Van Rossum, J. M., Arch. Int. Pharmacodyn, 143, 299-330, 1963.
Calcium ions play an essential role in induction and maintenance of vascular smooth muscle contractility. In potassium depolarized vascular smooth muscle, calcium antagonists may block the entry of calcium ions into the cell or act by other mechanisms to inhibit the contractions induced by calcium ions. The inhibition of calcium ion-induced contraction of vascular smooth muscle is used to test compounds for vascular calcium antagonism. Cardiovascular diseases such as arrythmias, angina-pectoris, hypertension, and peripheral vascular disease may be causally related to abnormalities in cellular handling of calcium ions.

[2] = test system: spontaneously hypertensive rat (SHR); assay: Anti-hypertensive activity, unanesthetized spontaneously hypertensive rat (SHR) assay, mean arterial blood pressure; assay type: in vivo
Procedure: Male, unanesthetized spontaneously hypertensive rats, 11 to 16 weeks old were used in this test procedure. The compounds to be tested are administered intragastrically at a dose of 50 mg/kg or intraarterially/intraveneously at a dose of 10 mg/kg. or such other doses determined to be suitable for a specific test compound.
Initial mean arterial blood pressure was measured directly via a previously implanted arterial catheter immediately before administration of the test compound. Blood pressure readings were made at 1, 2, 3, and 4 hours following administration of the test compound. […] Statistical comparisons were made using the paired Student's T test with two sided probability calculations.

[3] = reference drugs, dose not given

Structure (SMILES): COc1ccc([C@@H]2Sc3ccccc3N(CCN(C)C)C(=O)[C@@H]2OC(C)=O)cc1 [diltiazem, reference compound]
- active in the foregoing test (vascular calcium antagonism) [1]: active

Structure (SMILES): COc1ccc(CCN(C)CCCC(C#N)(c2ccc(OC)c(OC)c2)C(C)C)cc1OC (centres unmarked) [Verapamil, reference compound]
- active in the foregoing test (vascular calcium antagonism) [1]: active

Structure (SMILES): Clc1cccc(Cl)c1N=C1NCCN1 [Clonidine, reference compound]
- active in the foregoing hypertensive rat assay ([2]; rat, in vivo): active

Structure (SMILES): NNc1nncc2ccccc12 [Apresoline, reference compound]
- active in the foregoing hypertensive rat assay ([2]; rat, in vivo): active

Structure (SMILES): C[C@](N)(Cc1ccc(O)c(O)c1)C(=O)O [Aldomet, reference compound]
- active in the foregoing hypertensive rat assay [2, 3]: active

Structure (SMILES): COC(=O)c1cc(N(C)C)ccc1CN1CCC(C(c2ccc(F)cc2)c2ccc(F)cc2)CC1 [Example 4, methyl 2-[[4-[bis(4-fluorophenyl)methyl]-1-piperidinyl]methyl]-5-(dimethylamino)benzoate]
- SHR -mm Hg (dose), blood pressure change ([2]; 50 mpk-oral): -67 mm Hg
- pA2 (Ca++ antagonism) ([1]; 60 min, 1 µM): 7.78

Structure (SMILES): COC(=O)c1cc(OC)ccc1CN1CCC(C(c2ccccc2)c2ccccc2)CC1 [Example 8, methyl 2-[[4-(diphenylmethyl)-1-piperidinyl]methyl]-5-methoxybenzoate]
- SHR -mm Hg (dose), blood pressure change ([2]; 3-10 mpk-i.v.): -40 mm Hg

Structure (SMILES): CNC(=O)c1cc(N(C)C)ccc1CN1CCC(C(c2ccccc2)c2ccccc2)CC1 [Example 5, 5-(dimethylamino)-2-[[4-(diphenylmethyl)-1-piperidinyl]methyl]-N-methylbenzamide]
- SHR -mm Hg (dose), blood pressure change ([2]; 10 mpk-i.v.): -56 mm Hg
- pA2 (Ca++ antagonism) ([1]; 60 min, 1 µM): 7.25

Structure (SMILES): CN(C)c1ccc(CN2CCC(C(c3ccccc3)c3ccccc3)CC2)c(C(=O)NC(C)(C)C)c1 [Example 6, 5-(dimethylamino)-N-(1,1-dimethylethyl)-2-[[4-(diphenylmethyl)-1-piperidinyl]methyl]benzamide]
- SHR activity (in words) ([2]; dose not given, active if mean post treatment blood pressure differs from control, p <= 0.05): inactive
- pA2 (Ca++ antagonism) ([1]; 60 min, 1 µM): 7.20

Structure (SMILES): COC(=O)C1=C(C)NC(C)=C(C(=O)OC)C1c1ccccc1[N+](=O)[O-] [nifedipine, reference compound]
- active in the foregoing test (vascular calcium antagonism) [1]: active

Structure (SMILES): CN(C)c1ccc(C[N+]2([O-])CCC(C(c3ccccc3)c3ccccc3)CC2)cc1 (centres unmarked) [Example 9]
- SHR -mm Hg (dose), blood pressure change ([2]; 50 mpk-oral): -48 mm Hg
- pA2 (Ca++ antagonism) [1]: inactive

Structure (SMILES): COC(=O)c1cc(N(C)C)ccc1CN1CCC(C(c2ccccc2)c2ccccc2)CC1 [Example 11, methyl 5-(dimethylamino)-2-[[4-(diphenylmethyl)-1-piperidinyl]methyl]benzoate]
- SHR -mm Hg (dose), blood pressure change ([2]; 50 mpk-oral): -34 mm Hg
- pA2 (Ca++ antagonism) ([1]; 60 min, 1 µM): 7.65

Structure (SMILES): CN(C)c1ccc(CN2CCC(C(c3ccc(F)cc3)c3ccc(F)cc3)CC2)c(C(=O)NC(C)(C)C)c1 [Example 3, 2-[[4-[bis(4-fluorophenyl)methyl]-1-piperidinyl]methyl]-5-(dimethylamino)-N-(1,1-dimethylethyl)benzamide]
- SHR -mm Hg (dose), blood pressure change ([2]; 50 mpk-oral): -54 mm Hg
- pA2 (Ca++ antagonism) [1]: inactive

Structure (SMILES): C[C@H](CS)C(=O)N1CCC[C@H]1C(=O)O [Captopril, reference compound]
- active in the foregoing hypertensive rat assay [2, 3]: active

Source: US4628095A, “Substituted N-benzyl-4-(benzhydryl) piperidines” (G. D. Searle & Co., priority 1985, dated 1986)
